One may read the ED50 as the dose that gives a 50% effect, or the effect in half of the subjects.

Like-named read-outs stand apart in the source and are kept apart here.

For series [1], the system named is Isoflurane anesthesia (minimum alveolar concentration, MAC). The series is described as follows: General anesthesia test: reduction of isoflurane MAC after i.p. compound. The format is in vivo, rats. The method, then:
The MAC value is the minimum alveolar concentration of anesthetic at 1 atm that produces immobility in 50% of the subjects.
200 mg of each compound are tested for general anesthesia activity Testing is performed on rats to determine the percent reduction in the use of isoflurane. Inhaled anesthetics still need to be utilized to rapidly adjust the level of anesthesia. Since no single anesthetic is capable of all four requirements for anesthesia, a combination is utilized. The rats were first anesthetized with isoflurane, intubated, ventilated and then a femoral line was inserted. After the rat had been stable for 15 minutes, the initial minimum alveolar concentration (MAC) value was determined. […] After 30 minutes the second MAC value was determined post administration. Finally, after one hour the third MAC value was determined. At each MAC determination, a sample of blood was taken to determine pH, pCO2, and pO2. The results of the compounds tested to date are compared to the lead compound 17.
A classical comparison of log P and MAC reduction was investigated. A graph representing the effects of log P on the biological activity is presented in graphic form (See FIG. 1). The general anesthetic activity of compounds 20-23 and 36-43 were compared to lead compound 17 as represented in the graph (FIG. 1) and in Table 1. The partition coefficient, P, is a measure of the way the compound distributes itself between octanol and water. […] Therefore, meta-substituted derivatives 20 will be the focus of future synthesize. Bulky substituents on the alcohol were also found to have low activity.

In another series the test system is blood dyscrasias, rash. As to conditions: 1950's findings; cited from earlier work.
In another series the test system is seizures. The following applies: cited from earlier work; for anticonvulsant activity: tested in the 1950's.
In series [2] the test system is blood pressure / hemodynamics. Put plainly: Hemodynamic effects during isoflurane anesthesia. The format is in vivo, rats. The following applies: rat, in vivo. The protocol: 200 mg of each compound are tested for general anesthesia activity Testing is performed on rats to determine the percent reduction in the use of isoflurane. Inhaled anesthetics still need to be utilized to rapidly adjust the level of anesthesia. Since no single anesthetic is capable of all four requirements for anesthesia, a combination is utilized. The rats were first anesthetized with isoflurane, intubated, ventilated and then a femoral line was inserted. After the rat had been stable for 15 minutes, the initial minimum alveolar concentration (MAC) value was determined. Then, 60 mg/kg of drug was sonicated in 3 mL of peanut oil and injected (i.p.). After 30 minutes the second MAC value was determined post administration. Finally, after one hour the third MAC value was determined. At each MAC determination, a sample of blood was taken to determine pH, pCO2, and pO2. The results of the compounds tested to date are compared to the lead compound 17.

In the next series the test system is rats. Put plainly: Anticonvulsant testing of compound 17 in rats (oral ED50, toxicity, surgical anesthesia). The format is in vivo. From the text: In addition increased halogen size and saturation at the position 3 carbon also increase anesthetic activity. A hydrogen bond donor is also important at the position 2 carbon, but bulk is not well tolerated.

With `CC(O)(C(N)=O)c1ccccc1` (racemic) [Themisone, α-hydroxy-α-methylbenzeneacetamide], the “anesthetic activity” value in series [1] (rat, in vivo) is reported as “no anesthetic activity”. Moreover, the “toxicity” value with blood dyscrasias, rash is given as “toxic (blood dyscrasias, rash)”. Also, in the series on seizures (racemic mixture, 250 mg/kg), the “mice protected against seizures” value was 4 out of 4. Besides, the “anticonvulsant activity” value with seizures is “very potent anticonvulsant”; in the series with seizures (listed as atrolactamide (themisone)) it was “anticonvulsant activity”.
For `NC(=O)C(O)(c1ccccc1)C(F)(F)F` (stereo not shown) [Compound 17, 3,3,3-Trifluoro-2-hydroxy-2-phenyl-propionamide], in series [1] (isoflurane 1.2% in O2, dose not stated), the “lowering of minimum alveolar concentration (MAC) value of isoflurane” value is “sixty”. For the same compound, in series [1] (rats, 60 mg/kg i.p. in peanut oil, 1.2% isoflurane generates 100% anesthesia), the “MAC value of Isoflurane at 60 mg/kg of compound” value came to 0.65%. Further, the “Percent Reduction in Isoflurane” value in series [1] (rats, 60 mg/kg i.p., relative to 1.2% isoflurane) is 46%. The “Hemodynamic Effects” value in series [2] is “no hemodynamic effects”; in series [2] (ip, 60 mg/kg), “none”. Moreover, the median effective dose (ED50) in the series on rats (Rattus norvegicus, rats, oral, read-out: anesthetic activity, oral ED50) was found to be 9 mg/kg. Also, the toxicity at dose with rats (rats, oral) came out at 300 mg/kg. Besides, in the series with rats (third stage: general loss of spinal reflexes and muscle tone), the “stage of anesthesia exhibited by animals” value was “surgical anesthesia”.

Values taken from patent publication US7414078B2, “Oral general anesthetics and metabolitically resistant anticonvulsants” (University of Virginia Patent Foundation, priority 2001, dated 2008).
